Compound: CC1=C(C=CC(=C1)[N+](=O)[O-])NS(=O)(=O)C2=C(C=CC(=C2)Cl)Cl [FH535] + CC(=O)c1c(C)c2cnc(Nc3ccc(N4CCNCC4)cn3)nc2n(C2CCCC2)c1=O [Palbociclib] (partner 0.5 µM)
Assay: relative viability (nuclei count vs DMSO), 5 days (fraction); higher = more cells survive
How it was run: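 The day after seeding in 1536-well plates, lung cancer cell lines were treated by pin tool with a single drug, or with a fixed anchor-drug dose together with five library-drug doses (not always all listed) in √10 steps. After 5 days, a combined fix-and-stain solution (final 0.05% Triton X-100, 1% formaldehyde, 1 ug/ml Hoechst) was added. Nuclei counted on 4× images gave relative viability as treated counts over vehicle counts, reported as the median of duplicate plates.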

Cell Line | relative viability (first compound 0.04 µM) | relative viability (first compound 0.1265 µM) | relative viability (first compound 0.4 µM) | relative viability (first compound 1.265 µM)
201T | 0.374 | 0.344 | 0.332 | 0.301
A-427 | 0.532 | 0.575 | 0.546 | 0.474
ABC-1 | 0.715 | 0.641 | 0.458 | 0.583
BEN | 0.477 | 0.455 | 0.489 | 0.431
CAL-12T | 0.344 | 0.442 | 0.393 | 0.25
COR-L23 | 0.3 | 0.327 | 0.263 | 0.256
COR-L 105 | 0.335 | 0.386 | 0.43 | 0.359
ChaGo-K-1 | 0.893 | 0.946 | 0.888 | 0.531
EKVX | 0.422 | 0.396 | 0.333 | 0.292
EMC-BAC-2 | 0.546 | 0.507 | 0.526 | 0.512
EPLC-272H | 0.363 | 0.336 | 0.337 | 0.299
H3255 | 0.302 | 0.307 | 0.346 | 0.307
HARA | 0.233 | 0.278 | 0.277 | 0.241
HCC-15 | 0.651 | 0.781 | 0.639 | 0.523
HCC-44 | 1.02 | 0.889 | 0.914 | 0.79
HCC-78 | 0.487 | 0.512 | 0.458 | 0.425
HCC-366 | 0.418 | 0.412 | 0.37 | 0.296
HCC-827 | 0.501 | 0.479 | 0.489 | 0.332
HOP-62 | 0.481 | 0.462 | 0.456 | 0.393
LC-2-ad | 0.481 | 0.482 | 0.476 | 0.441
LCLC-97TM1 | 0.199 | 0.203 | 0.235 | 0.135
LCLC-103H | 0.509 | 0.426 | 0.493 | 0.416
LK-2 | 0.624 | 0.578 | 0.553 | 0.593
LOU-NH91 | 0.458 | 0.536 | 0.548 | 0.497

Cell Line | relative viability (first compound 0.04 µM) | relative viability (first compound 0.1265 µM) | relative viability (first compound 0.4 µM) | relative viability (first compound 1.265 µM)
LU99A | 0.35 | 0.436 | 0.432 | 0.342
LXF-289 | 0.597 | 0.618 | 0.559 | 0.497
NCI-H23 | 0.453 | 0.552 | 0.477 | 0.471
NCI-H322M | 0.489 | 0.481 | 0.524 | 0.511
NCI-H358 | 0.121 | 0.129 | 0.129 | 0.134
NCI-H441 | 0.212 | 0.197 | 0.176 | 0.174
NCI-H460 | 0.175 | 0.253 | 0.244 | 0.117
NCI-H520 | 0.205 | 0.248 | 0.182 | 0.246
NCI-H522 | 0.984 | 0.936 | 0.945 | 0.701
NCI-H647 | 0.401 | 0.445 | 0.27 | 0.4
NCI-H650 | 0.282 | 0.35 | 0.332 | 0.266
NCI-H661 | 0.387 | 0.399 | 0.394 | 0.32
NCI-H727 | 0.663 | 0.634 | 0.693 | 0.63
NCI-H838 | 0.217 | 0.222 | 0.208 | 0.198
NCI-H1355 | 0.394 | 0.436 | 0.4 | 0.324
NCI-H1395 | 0.599 | 0.735 | 0.63 | 0.561
NCI-H1437 | 0.316 | 0.314 | 0.237 | 0.229
NCI-H1650 | 0.325 | 0.323 | 0.303 | 0.212
NCI-H1651 | 0.51 | 0.497 | 0.532 | 0.437
NCI-H1666 | 0.674 | 0.639 | 0.614 | 0.631
NCI-H1734 | 0.375 | 0.312 | 0.351 | 0.332
NCI-H1755 | 0.428 | 0.413 | 0.463 | 0.448
NCI-H1792 | 0.657 | 0.629 | 0.664 | 0.486
NCI-H1793 | 0.315 | 0.306 | 0.348 | 0.241

Cell Line | relative viability (first compound 0.04 µM) | relative viability (first compound 0.1265 µM) | relative viability (first compound 0.4 µM) | relative viability (first compound 1.265 µM)
NCI-H1915 | 0.537 | 0.501 | 0.469 | 0.45
NCI-H1944 | 0.328 | 0.326 | 0.35 | 0.272
NCI-H1975 | 0.627 | 0.403 | 0.481 | 0.474
NCI-H1993 | 0.651 | 0.661 | 0.592 | 0.415
NCI-H2009 | 0.243 | 0.174 | 0.229 | 0.215
NCI-H2023 | 0.383 | 0.369 | 0.404 | 0.331
NCI-H2085 | 0.507 | 0.45 | 0.448 | 0.365
NCI-H2087 | 0.23 | 0.176 | 0.21 | 0.158
NCI-H2126 | 0.352 | 0.329 | 0.363 | 0.322
NCI-H2170 | 0.397 | 0.423 | 0.372 | 0.312
NCI-H2228 | 0.734 | 0.548 | 0.745 | 0.788
NCI-H2347 | 0.456 | 0.342 | 0.416 | 0.397
NCI-H2405 | 0.5 | 0.504 | 0.492 | 0.354
NCI-H3122 | 0.169 | 0.218 | 0.195 | 0.187
PC-3 [JPC-3] | 0.494 | 0.548 | 0.529 | 0.548
PC-14 | 0.512 | 0.6 | 0.593 | 0.548
RERF-LC-KJ | 0.992 | 1.05 | 0.957 | 0.846
SK-LU-1 | 0.412 | 0.406 | 0.373 | 0.334
SK-MES-1 | 0.305 | 0.301 | 0.312 | 0.263
SW 900 | 0.516 | 0.503 | 0.507 | 0.454
SW 1573 | 0.389 | 0.428 | 0.384 | 0.298
UMC-11 | 0.346 | 0.361 | 0.311 | 0.325
